Measured values taken from patent US20090215713A1, “Use of atp for the manufacture of a medicament for the prevention and treatment of oxidative stress and related conditions” (priority 2004, published 2009).

Assay: ATP infusions in a patient with rheumatoid arthritis
Assay type: in vivo, human
Protocol: Patients with different diseases received infusions of 10-75 μg/kg·min over 8-24 h, at intervals of 1-4 weeks in different randomized clinical trials. In all cases, the first. infusion was given under clinical supervision, subsequent infusions were given in the setting of private homes. Preliminary results in small numbers of patients with persistent rheumatoid arthritis, chronic fatigue syndrome, and cancer in the pre-terminal stage, and lung cancer during curative radiotherapy are given below.
[…] […] DAS score had decreased from 5.80 to 3.09 and CRP had decreased from 43 to 6 mg/L.; all other blood values were normal. MD's conclusion: marked decease of disease activity.

[1] = after 10 weekly infusions, 10-15 μg/kg·min

With `Nc1ncnc2c1ncn2[C@@H]1O[C@H](COP(=O)(O)OP(=O)(O)OP(=O)(O)O)[C@@H](O)[C@H]1O` [ATP, Adenosine 5′-triphosphate] the “joint swelling and pain” value (after 10 infusions) was “markedly decreased”, the CRP [1] was 6 mg/L and the DAS score [1] was 3.09. The CRP (before ATP) was 43 mg/L and the DAS score (before ATP) was 5.80.
